ChEMBL document CHEMBL5625242, “Discovery of brain permeable 2-Azabicyclo[2.2.2]octane sulfonamides as a novel class of presenilin-1 selective γ-secretase inhibitors” (Eur J Med Chem, 2023)
Converted amounts (≈) assume the structure as drawn. One block for each compound: values may come before it.

Legend:
[1] = Inhibition of human PSEN1/APH1A expressed in MEF cells with Psen1/2 double knockout/Aph1ABC triple knockout by ELISA; assay type: cell-based
[2] = Inhibition of human PSEN2/APH1A expressed in MEF cells with Psen1/2 double knockout/Aph1ABC triple knockout by ELISA; assay type: cell-based
[3] = organism: Homo sapiens; experiment: Selectivity ratio of IC50 for human PSEN1/APH1A expressed in MEF cells with Psen1/2 double knockout/Aph1ABC triple knockout to IC50 for human PSEN1/APH1B expressed in MEF cells with Psen1/2 double knockout/Aph1ABC triple knockout; assay type: cell-based
[4] = organism: Homo sapiens; experiment: Selectivity ratio of IC50 for human PSEN2/APH1B expressed in MEF cells with Psen1/2 double knockout/Aph1ABC triple knockout to IC50 for human PSEN1/APH1B expressed in MEF cells with Psen1/2 double knockout/Aph1ABC triple knockout; assay type: cell-based
[5] = organism: Homo sapiens; experiment: Selectivity ratio of IC50 for human PSEN2/APH1A expressed in MEF cells with Psen1/2 double knockout/Aph1ABC triple knockout to IC50 for human PSEN1/APH1B expressed in MEF cells with Psen1/2 double knockout/Aph1ABC triple knockout; assay type: cell-based
[6] = Inhibition of human PSEN2/APH1B expressed in MEF cells with Psen1/2 double knockout/Aph1ABC triple knockout by ELISA; assay type: cell-based
[7] = Inhibition of human PSEN1/APH1B expressed in MEF cells with Psen1/2 double knockout/Aph1ABC triple knockout by ELISA; assay type: cell-based
[8] = target: Cytochrome P450 2C9 (Homo sapiens, UniProt P11712); experiment: Inhibition of human CYP2C9 using tolbutamide as substrate by fluorescence based assay; assay type: ADME
Sequence of Cytochrome P450 2C9 (P11712 whole entry): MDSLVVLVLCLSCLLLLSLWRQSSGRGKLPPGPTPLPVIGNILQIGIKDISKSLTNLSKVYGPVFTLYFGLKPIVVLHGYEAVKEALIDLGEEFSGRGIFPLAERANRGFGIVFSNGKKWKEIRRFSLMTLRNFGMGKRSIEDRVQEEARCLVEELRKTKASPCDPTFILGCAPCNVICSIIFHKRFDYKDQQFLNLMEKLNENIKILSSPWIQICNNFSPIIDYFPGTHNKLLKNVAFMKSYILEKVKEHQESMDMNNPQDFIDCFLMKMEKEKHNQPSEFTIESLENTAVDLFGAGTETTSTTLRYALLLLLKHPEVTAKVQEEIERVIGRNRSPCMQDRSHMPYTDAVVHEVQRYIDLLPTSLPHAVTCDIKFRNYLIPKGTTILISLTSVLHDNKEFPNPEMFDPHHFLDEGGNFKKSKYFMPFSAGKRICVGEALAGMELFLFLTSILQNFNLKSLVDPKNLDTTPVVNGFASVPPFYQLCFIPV

[9] = target: Voltage-gated inwardly rectifying potassium channel KCNH2 (Homo sapiens, UniProt Q12809); experiment: Inhibition of hERG; assay type: toxicity
Sequence of Voltage-gated inwardly rectifying potassium channel KCNH2 (Q12809 whole entry): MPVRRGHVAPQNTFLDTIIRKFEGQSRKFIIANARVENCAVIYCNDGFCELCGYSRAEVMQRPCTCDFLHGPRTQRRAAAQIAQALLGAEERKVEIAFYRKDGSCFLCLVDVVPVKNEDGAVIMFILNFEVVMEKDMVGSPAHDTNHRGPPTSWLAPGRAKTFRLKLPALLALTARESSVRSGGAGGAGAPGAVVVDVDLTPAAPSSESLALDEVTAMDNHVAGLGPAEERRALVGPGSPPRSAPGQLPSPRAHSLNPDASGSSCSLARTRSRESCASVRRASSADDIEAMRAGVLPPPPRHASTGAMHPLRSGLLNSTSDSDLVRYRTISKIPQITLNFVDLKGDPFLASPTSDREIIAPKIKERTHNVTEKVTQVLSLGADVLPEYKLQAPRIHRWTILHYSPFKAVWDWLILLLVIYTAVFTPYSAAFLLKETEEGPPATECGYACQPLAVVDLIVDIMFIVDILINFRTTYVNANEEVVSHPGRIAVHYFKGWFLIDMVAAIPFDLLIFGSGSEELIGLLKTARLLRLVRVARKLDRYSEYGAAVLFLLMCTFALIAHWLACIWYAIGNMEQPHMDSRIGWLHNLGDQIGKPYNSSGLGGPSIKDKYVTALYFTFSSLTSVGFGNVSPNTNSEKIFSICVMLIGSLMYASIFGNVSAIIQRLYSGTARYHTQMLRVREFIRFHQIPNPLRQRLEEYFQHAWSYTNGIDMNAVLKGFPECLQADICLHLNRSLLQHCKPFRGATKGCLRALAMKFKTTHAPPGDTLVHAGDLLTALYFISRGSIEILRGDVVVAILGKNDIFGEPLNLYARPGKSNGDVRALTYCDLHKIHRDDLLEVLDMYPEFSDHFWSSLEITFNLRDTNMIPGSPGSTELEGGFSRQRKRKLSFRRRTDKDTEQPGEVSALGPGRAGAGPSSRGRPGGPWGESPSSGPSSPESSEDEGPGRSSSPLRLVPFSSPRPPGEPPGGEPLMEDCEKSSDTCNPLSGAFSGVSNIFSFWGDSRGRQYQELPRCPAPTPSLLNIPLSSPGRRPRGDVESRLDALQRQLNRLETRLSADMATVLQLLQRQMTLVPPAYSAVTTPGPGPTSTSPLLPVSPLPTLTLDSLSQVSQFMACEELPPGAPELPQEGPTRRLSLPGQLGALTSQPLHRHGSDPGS

[10] = Kinetic solubility of compound at pH 4; assay type: physicochemical; settings: buffer, read-out: Kinetic_solubility
[11] = tested on: sodium channel; experiment: Inhibition of rat sodium channel; assay type: toxicity
[12] = Free fraction in rat brain homogenate at 5 uM incubated for 5 hrs by HPLC-MS/MS analysis; assay type: ADME, tissue-based
[13] = AUClast in CD-1 mouse at 30 mg/kg, po measured at 4 hrs post-dose; assay type: ADME, organism-based; settings: in vivo
[14] = target: Cytochrome P450 3A4 (Homo sapiens, UniProt P08684); experiment: Inhibition of human CYP3A4 using midazolam as substrate by fluorescence based assay; assay type: ADME
Sequence of Cytochrome P450 3A4 (P08684 whole entry): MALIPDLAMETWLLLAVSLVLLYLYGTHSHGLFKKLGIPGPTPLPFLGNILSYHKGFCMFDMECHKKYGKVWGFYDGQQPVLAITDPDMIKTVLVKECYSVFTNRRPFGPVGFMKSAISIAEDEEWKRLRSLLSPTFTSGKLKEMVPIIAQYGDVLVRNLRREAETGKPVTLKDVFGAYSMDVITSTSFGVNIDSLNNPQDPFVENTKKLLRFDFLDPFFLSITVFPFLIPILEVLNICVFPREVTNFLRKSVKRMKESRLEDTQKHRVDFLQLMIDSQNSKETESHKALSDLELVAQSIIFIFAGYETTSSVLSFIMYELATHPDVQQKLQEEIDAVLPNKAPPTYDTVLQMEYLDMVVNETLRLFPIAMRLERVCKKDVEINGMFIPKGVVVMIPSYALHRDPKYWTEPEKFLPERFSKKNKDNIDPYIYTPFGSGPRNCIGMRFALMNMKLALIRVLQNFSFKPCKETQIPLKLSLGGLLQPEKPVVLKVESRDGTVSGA

[15] = tested on: human MDR1; experiment: Efflux ratio of apparent permeability basal to apical side over apical to basal side in MDCK cells transfected with human MDR1 at 5 uM by LC-MS/MS analysis; assay type: ADME, cell-based, Canis lupus familiaris; settings: dog
[16] = target: T1, Cytochrome P450 1A2 (Homo sapiens, UniProt P05177); experiment: Inhibition of human CYP1A2 using phenacetin as substrate by fluorescence based assay; assay type: ADME
T1 sequence (P05177 whole entry): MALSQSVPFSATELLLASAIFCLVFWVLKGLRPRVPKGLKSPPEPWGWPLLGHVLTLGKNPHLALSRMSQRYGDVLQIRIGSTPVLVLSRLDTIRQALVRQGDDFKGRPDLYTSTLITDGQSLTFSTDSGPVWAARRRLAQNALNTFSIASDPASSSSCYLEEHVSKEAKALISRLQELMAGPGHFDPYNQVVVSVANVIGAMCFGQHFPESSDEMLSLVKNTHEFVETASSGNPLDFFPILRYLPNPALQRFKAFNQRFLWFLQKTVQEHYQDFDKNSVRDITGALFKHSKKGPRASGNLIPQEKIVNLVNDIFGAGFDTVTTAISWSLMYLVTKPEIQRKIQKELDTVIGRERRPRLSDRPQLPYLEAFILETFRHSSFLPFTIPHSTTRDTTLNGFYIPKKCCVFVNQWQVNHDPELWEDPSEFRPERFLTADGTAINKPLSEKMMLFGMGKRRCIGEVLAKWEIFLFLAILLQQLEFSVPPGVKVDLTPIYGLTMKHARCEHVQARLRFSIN

[17] = Kinetic solubility of compound at pH 2; assay type: physicochemical; settings: buffer, read-out: Kinetic_solubility
[18] = Unbound drug concentration in Swiss mouse plasma at 2.5 mg/kg, iv measured at 5 mins post-dose; assay type: ADME, organism-based; settings: in vivo
[19] = Drug concentration in Swiss mouse brain at 2.5 mg/kg, iv measured at 5 mins post-dose; assay type: ADME, organism-based; settings: read-out: Ct
[20] = target: T2, Cytochrome P450 2C8 (Homo sapiens, UniProt P10632); experiment: Inhibition of human CYP2C8 using amodiaquine as substrate by fluorescence based assay; assay type: ADME
T2 sequence (P10632 whole entry): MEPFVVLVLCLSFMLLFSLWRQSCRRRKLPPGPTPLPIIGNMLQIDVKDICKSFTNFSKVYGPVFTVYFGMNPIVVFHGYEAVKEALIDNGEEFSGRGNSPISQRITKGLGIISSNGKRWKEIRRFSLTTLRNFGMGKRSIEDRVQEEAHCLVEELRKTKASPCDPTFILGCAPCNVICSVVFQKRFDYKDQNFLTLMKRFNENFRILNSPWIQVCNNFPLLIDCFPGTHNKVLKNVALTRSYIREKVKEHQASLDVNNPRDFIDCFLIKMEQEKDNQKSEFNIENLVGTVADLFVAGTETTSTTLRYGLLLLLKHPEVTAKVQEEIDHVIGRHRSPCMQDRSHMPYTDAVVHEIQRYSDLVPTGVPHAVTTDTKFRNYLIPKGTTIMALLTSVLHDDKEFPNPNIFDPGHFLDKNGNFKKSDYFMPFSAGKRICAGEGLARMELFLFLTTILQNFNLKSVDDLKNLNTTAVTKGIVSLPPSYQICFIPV

[21] = Ratio of drug concentration in brain to plasma of Swiss mouse at 2.5 mg/kg, iv measured at 5 mins post-dose; assay type: ADME, organism-based; settings: read-out: BPR
[22] = AUC (0 to infinity) in CD-1 mouse at 30 mg/kg, po measured at 4 hrs post-dose; assay type: ADME, organism-based; settings: in vivo
[23] = Ratio of unbound drug concentration in brain to plasma in Swiss mouse at 2.5 mg/kg, iv measured at 5 mins post-dose; assay type: ADME, organism-based; settings: read-out: K(p,uu,brain)
[24] = Drug concentration in Swiss mouse plasma at 2.5 mg/kg, iv measured at 5 mins post-dose; assay type: ADME, organism-based
[25] = MRT in CD-1 mouse at 30 mg/kg, po measured at 4 hrs post-dose; assay type: ADME, organism-based; settings: in vivo
[26] = tested on: calcium channel; experiment: Inhibition of rat calcium channel; assay type: toxicity
[27] = target: Cytochrome P450 2C19 (Homo sapiens, UniProt P33261); experiment: Inhibition of human CYP2C19 using S-mephenytoin as substrate by fluorescence based assay; assay type: ADME
Sequence of Cytochrome P450 2C19 (P33261 whole entry): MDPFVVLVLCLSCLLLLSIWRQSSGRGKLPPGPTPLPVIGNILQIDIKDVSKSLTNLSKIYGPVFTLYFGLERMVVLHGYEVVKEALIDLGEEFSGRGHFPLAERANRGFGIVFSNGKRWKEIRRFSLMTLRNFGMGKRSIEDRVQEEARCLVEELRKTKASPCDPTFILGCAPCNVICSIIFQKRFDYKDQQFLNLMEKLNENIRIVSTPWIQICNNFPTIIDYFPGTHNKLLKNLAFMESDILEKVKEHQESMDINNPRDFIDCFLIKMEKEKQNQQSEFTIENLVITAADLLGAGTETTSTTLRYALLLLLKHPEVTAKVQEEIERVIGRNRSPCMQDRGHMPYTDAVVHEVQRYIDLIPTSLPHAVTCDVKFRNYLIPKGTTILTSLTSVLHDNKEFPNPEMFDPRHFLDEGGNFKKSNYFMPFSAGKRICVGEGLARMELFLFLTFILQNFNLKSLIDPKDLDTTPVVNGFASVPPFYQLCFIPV

[28] = tested on: human MDR1; experiment: Apparent permeability across apical to basal side in MDCK cells transfected with human MDR1 at 5 uM by LC-MS/MS analysis; assay type: ADME, cell-based, Canis lupus familiaris; settings: dog
[29] = target: Cytochrome P450 2D6 (Homo sapiens, UniProt P10635); experiment: Inhibition of human CYP2D6 using dextrometorphan as substrate by fluorescence based assay; assay type: ADME
Sequence of Cytochrome P450 2D6 (P10635 whole entry): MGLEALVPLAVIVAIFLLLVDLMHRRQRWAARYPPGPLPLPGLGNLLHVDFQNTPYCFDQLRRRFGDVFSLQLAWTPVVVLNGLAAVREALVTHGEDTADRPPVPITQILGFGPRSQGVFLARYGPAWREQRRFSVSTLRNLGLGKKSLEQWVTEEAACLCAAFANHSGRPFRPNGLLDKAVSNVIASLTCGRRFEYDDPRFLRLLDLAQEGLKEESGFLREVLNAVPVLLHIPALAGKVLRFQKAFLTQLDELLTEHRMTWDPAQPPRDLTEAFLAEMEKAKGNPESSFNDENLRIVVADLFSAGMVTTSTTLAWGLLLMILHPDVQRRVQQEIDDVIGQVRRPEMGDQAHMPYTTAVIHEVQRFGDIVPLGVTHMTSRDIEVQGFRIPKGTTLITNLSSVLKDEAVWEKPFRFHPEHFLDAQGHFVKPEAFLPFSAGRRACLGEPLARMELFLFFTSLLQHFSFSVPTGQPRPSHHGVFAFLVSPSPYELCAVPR

[30] = Protein binding in mouse plasma assessed as free fraction at 5 uM incubated for 4.5 hrs by HPLC analysis; assay type: ADME, cell-free
[31] = Tmax in CD-1 mouse at 30 mg/kg, po measured at 4 hrs post-dose; assay type: ADME, organism-based; settings: in vivo
[32] = Volume of distribution at steady state in CD-1 mouse at 30 mg/kg, po measured at 4 hrs post-dose; assay type: ADME, organism-based; settings: in vivo
[33] = Half life in CD-1 mouse at 30 mg/kg, po measured at 4 hrs post-dose; assay type: ADME, organism-based; settings: in vivo
[34] = Kinetic solubility of compound at pH 7.4; assay type: physicochemical; settings: buffer, read-out: Kinetic_solubility
[35] = Metabolic stability in mouse liver microsomes assessed as intrinsic clearance; assay type: ADME, Microsome; settings: liver microsomes, read-out: CLH
[36] = Metabolic stability in human liver microsomes assessed as intrinsic clearance; assay type: ADME, Microsome; settings: liver microsomes, read-out: CLH

SMILES: O=S(=O)(c1ccc(Cl)cc1)N1[C@H]2CC[C@@H]([C@H]1c1ccc(C(F)(F)F)cc1)[C@@H](O)C2 (racemic) [listing 1 of 2 here]
Ratio IC50 [3]: > 5 | Ratio IC50 [4]: > 330 | Ratio IC50 [5]: > 390

SMILES: COc1ccc(S(=O)(=O)N2[C@H]3CC[C@H](C(=O)C3)[C@H]2c2ccc(C(F)(F)F)cc2)cc1 (racemic)
IC50 [1]: > 10000 nM | IC50 [2]: > 10000 nM | Ratio IC50 [3]: > 40 | IC50 [6]: > 10000 nM | IC50 [7]: 1440 nM

SMILES: CCOC(=O)Nc1ccc([C@@H]2[C@@H]3CC[C@@H](CC3=O)N2S(=O)(=O)c2ccc(Cl)cc2)cc1 (racemic)
IC50 [1]: 3240 nM | IC50 [2]: 6170 nM | Ratio IC50 [3]: > 11 | Ratio IC50 [4]: > 20 | Ratio IC50 [5]: > 20 | IC50 [6]: 6460 nM | IC50 [7]: 288 nM

Now from value to compound, other results behind:

IC50 [1]: 12 nM | IC50 [2]: 131 nM | IC50 [6]: 214 nM | IC50 [7]: 3 nM
SMILES: O=S(=O)(c1ccc(Cl)cc1)N1[C@H]2CC[C@@H]([C@H]1c1ccccc1Cl)[C@@H](O)C2 (racemic)
Ratio IC50 [3]: 2 | Ratio IC50 [4]: 100 | Ratio IC50 [5]: 40

IC50 [8]: > 10000 nM | solubility kinetic [10]: 12 µM (≈ 5.35 µg/mL) | IC50 [1]: 19 nM | IC50 [2]: 1950 nM | fraction unbound at 5 h, 5 µM [12]: 0.00115 | AUC(0-t) at 4 h [13]: 163 ng·h/mL | IC50 [14]: 3000 nM | efflux ratio at 5 µM [15]: 1.95 | IC50 [16]: > 10000 nM | solubility kinetic [17]: 13 µM (≈ 5.8 µg/mL) | Cp(f) [18]: 2.1 ng/mL | concentration at 5 min [19]: 3620 ng/g | IC50 [20]: > 10000 nM | Kp at 5 min [21]: 5.4 | AUC [22]: 174 ng·h/mL | Kp uu at 5 min [23]: 1.97 | concentration at 5 min [24]: 680 ng/mL | MRT [25]: 27.2 min | IC50 [27]: > 10000 nM | Papp A→B at 5 µM [28]: 6.3 ×10⁻⁶ cm/s | IC50 [29]: > 10000 nM | fraction unbound at 4.5 h, 5 µM [30]: 0.00309 | Tmax [31]: 120 min | Vdss [32]: 3.43 L/kg | IC50 [6]: 2140 nM | half-life [33]: 28.9 min | IC50 [7]: 5.5 nM | solubility kinetic [34]: 18 µM (≈ 8.03 µg/mL)
SMILES: O=S(=O)(c1ccc(Cl)cc1)N1[C@H]2CC[C@@H]([C@H]1c1ccc(C(F)(F)F)cc1)[C@@H](O)C2
IC50 [9]: > 10000 nM | IC50 [11]: > 10000 nM | IC50 [26]: > 10000 nM

IC50 [1]: 41.7 nM | IC50 [2]: 2820 nM | microsomal CLint [35]: > 347 µL/min/mg | microsomal CLint [36]: > 347 µL/min/mg | IC50 [6]: 2450 nM | IC50 [7]: 7.2 nM
SMILES: O=S(=O)(c1ccc(Cl)cc1)N1[C@H]2CC[C@@H]([C@H]1c1ccc(C(F)(F)F)cc1)[C@@H](O)C2 (racemic) [listing 2 of 2 here]
